SMILES strings stand for the structures.

One assay addresses T1, β-catenin/BCL9 protein-protein [β-catenin/BCL9蛋白-蛋白] (Homo sapiens, UniProt P35222).
T1 construct: β-catenin(1-781)
T1 sequence (P35222 1-781): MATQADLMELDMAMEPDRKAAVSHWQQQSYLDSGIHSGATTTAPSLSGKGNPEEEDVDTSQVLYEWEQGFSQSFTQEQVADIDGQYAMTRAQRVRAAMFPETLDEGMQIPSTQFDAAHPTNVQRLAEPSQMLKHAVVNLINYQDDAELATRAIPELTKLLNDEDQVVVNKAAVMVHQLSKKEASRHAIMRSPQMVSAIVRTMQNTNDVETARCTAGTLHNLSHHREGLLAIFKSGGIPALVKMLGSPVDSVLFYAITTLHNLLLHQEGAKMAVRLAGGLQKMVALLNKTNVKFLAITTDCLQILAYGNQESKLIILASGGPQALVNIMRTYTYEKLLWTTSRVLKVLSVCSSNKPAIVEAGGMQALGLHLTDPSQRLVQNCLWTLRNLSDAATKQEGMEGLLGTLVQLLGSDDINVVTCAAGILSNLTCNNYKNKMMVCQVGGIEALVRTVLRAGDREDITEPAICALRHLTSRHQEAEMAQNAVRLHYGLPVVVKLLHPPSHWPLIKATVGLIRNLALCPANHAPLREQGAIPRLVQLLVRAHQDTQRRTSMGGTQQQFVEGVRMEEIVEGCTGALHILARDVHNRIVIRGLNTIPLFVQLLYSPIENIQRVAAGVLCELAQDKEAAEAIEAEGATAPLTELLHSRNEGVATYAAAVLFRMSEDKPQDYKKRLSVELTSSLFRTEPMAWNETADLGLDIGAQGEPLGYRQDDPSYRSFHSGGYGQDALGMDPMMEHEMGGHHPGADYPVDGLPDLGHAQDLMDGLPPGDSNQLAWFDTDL
In words: β-catenin/BCL9 protein-protein affinity, fluorescence polarisation (Example 71). As to conditions: better than compound c. The class given is binding. A general note: In fluorescence polarisation assays a small probe gives low polarisation when free and higher when bound to something large.
On to `CC(C)(Oc1cccc(C2CCCN(C(=O)c3cccc(-c4ccccc4)c3)C2)c1)C(=O)O` (centres unmarked) [化合物II-9, 2-(3-(1-([1,1'-联苯基]-3-羰基)哌啶-3-基)苯氧基)-2-甲基丙酸], for which the “affinity activity compared with reference compound c” value is on record as “亲和活性更优”.
Same read-out and setting: for `CC(C)(Oc1cccc(C2CCCN(S(=O)(=O)c3cccc(C4CCCCC4)c3)C2)c1)C(=O)O` (centres unmarked) [化合物II-16, 2-(3-(1-((3-环己基苯基)磺酰基)哌啶-3-基)苯氧基)-2-甲基丙酸] the value was “亲和活性更优”.
For the compound `CC(C)(Oc1cccc(C2CCCN(S(=O)(=O)c3cccc(-c4cccs4)c3)C2)c1)C(=O)O` (centres unmarked) [化合物II-17, 2-甲基-2-(3-(1-((3-(噻吩-2-基)苯基)磺酰基)哌啶-3-基)苯氧基)丙酸], the “affinity activity compared with reference compound c” value is reported as “亲和活性更优”.
`CC(C)(Oc1cccc(C2CCCN(C(=O)c3cccc(-c4ccc(F)c(F)c4)c3)C2)c1)C(=O)NS(=O)(=O)c1ccccc1` (centres unmarked) [化合物II-29, 2-(3-(1-(3',4'-二氟-[1,1'-联苯基]-3-羰基)哌啶-3-基)苯氧基)-2-甲基-N-(苯磺酰基)丙酰胺]: the “affinity activity compared with reference compound c” value is given as “亲和活性更优”.
As for `CC(C)c1ccc(-c2cccc(S(=O)(=O)N3CCCC(c4cccc(OC(C)(C)C(=O)NS(=O)(=O)c5ccc(C#N)cc5)c4)C3)c2)cc1` (centres unmarked) [化合物II-37, N-((4-氰基苯基)磺酰基)-2-(3-(1-((4'-异丙基-[1,1'-联苯]-3-基)磺酰)哌啶-3-基(苯氧基)-2-甲基丙酰胺], the “affinity activity compared with reference compound c” value is “亲和活性更优”.
For the compound `CC(C)c1ccc(-c2cccc(S(=O)(=O)N3CCCC(c4cccc(OC(C)(C)C(=O)NS(=O)(=O)c5cccc(C(F)(F)F)c5)c4)C3)c2)cc1` (centres unmarked) [化合物II-40, 2-(3-(1-((4'-异丙基-[1,1'-联苯]-3-基)磺酰基)哌啶-3-基(苯氧基)-2-甲基-N-((3-(三氟甲基)苯基)磺酰)丙酰胺], the “affinity activity compared with reference compound c” value is reported as “亲和活性更优”.
Turning to `CC(C)c1ccc(-c2cccc(S(=O)(=O)N3CCCC(c4cccc(OC(C)(C)C(=O)NS(=O)(=O)c5ccc([N+](=O)[O-])cc5)c4)C3)c2)cc1` (centres unmarked) [化合物II-42, 2-(3-(1-((4'-异丙基-[1,1'-联苯]-3-基)磺酰基)哌啶-3-基苯氧基)-2-甲基-N-((4-硝基苯基)磺酰)丙酰胺], the “affinity activity compared with reference compound c” value is “亲和活性更优”.
Regarding `CC(C)c1ccc(-c2cccc(S(=O)(=O)N3CCCC(c4cccc(OC(C)(C)C(=O)NS(=O)(=O)c5ccc(F)cc5)c4)C3)c2)cc1` (centres unmarked) [化合物II-43, N-((4-氟苯基)磺酰基)-2-(3-(1-((4'-异丙基-[1,1'-联苯]-3-基)磺酰)哌啶-3-基苯氧基)-2-甲基丙酰胺], the “affinity activity compared with reference compound c” value is on record as “亲和活性更优”.
`CC(C)c1ccc(-c2cccc(S(=O)(=O)N3CCCC(c4cccc(OC(C)(C)C(=O)NS(=O)(=O)c5cccc(F)c5)c4)C3)c2)cc1` (centres unmarked) [化合物II-44, N-((3-氟苯基)磺酰基)-2-(3-(1-((4'-异丙基-[1,1'-联苯]-3-基)磺酰)哌啶-3-基苯氧基)-2-甲基丙酰胺]: the “affinity activity compared with reference compound c” value is given as “亲和活性更优”.
As for `CC(C)c1ccc(-c2cccc(S(=O)(=O)N3CCCC(c4cccc(OC(C)(C)C(=O)NS(=O)(=O)c5cccc([N+](=O)[O-])c5)c4)C3)c2)cc1` (centres unmarked) [化合物II-45, 2-(3-(1-((4'-异丙基-[1,1'-联苯]-3-基)磺酰基)哌啶-3-基苯氧基)-2-甲基-N-((3-硝基苯基)磺酰)丙酰胺], the “affinity activity compared with reference compound c” value was “亲和活性更优”.
For `CC(C)c1ccc(-c2cccc(S(=O)(=O)N3CCCC(c4cccc(OC(C)(C)C(=O)NS(=O)(=O)c5cccc(C#N)c5)c4)C3)c2)cc1` (centres unmarked) [化合物II-46, N-((3-氰基苯基)磺酰基)-2-(3-(1-((4'-异丙基-[1,1'-联苯]-3-基)磺酰)哌啶-3-基苯氧基)-2-甲基丙酰胺], the “affinity activity compared with reference compound c” value is listed as “亲和活性更优”.
On the same count and under the same terms, as for `CC(C)c1ccc(-c2cccc(S(=O)(=O)N3CCCC(c4cccc(OC(C)(C)C(=O)NS(=O)(=O)c5ccc(OC(F)(F)F)cc5)c4)C3)c2)cc1` (centres unmarked) [化合物II-48, 2-(3-(1-((4'-异丙基-[1,1'-联苯]-3-基)磺酰基)哌啶-3-基苯氧基)-2-甲基-N-((4-(三氟甲氧基)苯基)磺酰)丙酰胺], the entry is “亲和活性更优”; as for `CC(=O)Nc1ccc(S(=O)(=O)NC(=O)C(C)(C)Oc2cccc(C3CCCN(S(=O)(=O)c4cccc(-c5ccc(C(C)C)cc5)c4)C3)c2)cc1` (centres unmarked) [化合物II-49, N-((4-乙酰氨基苯基)磺酰基)-2-(3-(1-((4'-异丙基-[1,1'-联苯]-3-基)磺酰)哌啶-3-基(苯氧基)-2-甲基丙酰胺], “亲和活性更优”; as for `CC(C)c1ccc(-c2cccc(S(=O)(=O)N3CCCC(c4cccc(OC(C)(C)C(=O)NS(=O)(=O)c5ccc6ccccc6c5)c4)C3)c2)cc1` (centres unmarked) [化合物II-50, 2-(3-(1-((4'-异丙基-[1,1'-联苯]-3-基)磺酰基)哌啶-3-基(苯氧基)-2-甲基-N-(萘-2-基磺酰)丙酰胺], “亲和活性更优”.
The same measure, in the same setting: for `COc1cccc(S(=O)(=O)NC(=O)C(C)(C)Oc2cccc(C3CCCN(S(=O)(=O)c4cccc(-c5ccc(C(C)C)cc5)c4)C3)c2)c1` (centres unmarked) [化合物II-51, 2-(3-(1-((4'-异丙基-[1,1'-联苯]-3-基)磺酰基)哌啶-3-基(苯氧基)-N-((3-甲氧基苯基)磺酰)-2-甲基丙酰胺] the value was “亲和活性更优”; for `CC(C)c1ccc(-c2cccc(S(=O)(=O)N3CCCC(c4cccc(OC(C)(C)C(=O)NS(=O)(=O)c5ccc(C(F)(F)F)cc5Cl)c4)C3)c2)cc1` (centres unmarked) [化合物II-52, N-((2-氯-4-(三氟甲基)苯基)磺酰基)-2-(3-(1-((4'-异丙基-[1,1'-联苯]-3-基)磺酰)哌啶-3-基苯氧基)-2-甲基丙酰胺], “亲和活性更优”.
In the case of `CC(C)(Oc1cccc(C2CCCN(C(=O)c3cccc(-c4ccc(F)c(F)c4)c3)C2)c1)C(=O)NS(=O)(=O)c1ccc(C(F)(F)F)cc1` (centres unmarked) [化合物II-55, 2-(3-(1-(3',4'-二氟-[1,1'-联苯]-3-羰基)哌啶-3-基)苯氧基)-2-甲基-N-((4-(三氟甲基)苯基)磺酰基)丙酰胺], the “affinity activity compared with reference compound c” value was “亲和活性更优”.
Same read-out and setting: as for `CC(C)(Oc1cccc(C2CCCN(C(=O)c3cccc(-c4ccc(F)c(F)c4)c3)C2)c1)C(=O)NS(=O)(=O)c1ccc2ccccc2c1` (centres unmarked) [化合物II-56, 2-(3-(1-(3',4'-二氟-[1,1'-联苯]-3-羰基)哌啶-3-基)苯氧基)-2-甲基-N-(萘-2-基磺酰基)丙酰胺], the entry is “亲和活性更优”; as for `CC(C)(Oc1cccc(C2CCCN(C(=O)c3cccc(-c4ccc(F)c(F)c4)c3)C2)c1)C(=O)N1CCC(=O)CC1` (centres unmarked) [化合物II-57, 1-(2-(3-(1-(3',4'-二氟-[1,1'-联苯]-3-羰基)哌啶-3-基)苯氧基)-2-甲基丙酰基)哌嗪-4-酮], “亲和活性更优”.
Still for that read-out and setting: for `CC(C)(Oc1cccc(C2CCCN(C(=O)c3cccc(-c4ccc(F)c(F)c4)c3)C2)c1)C(=O)N1CCNCC1.Cl` (centres unmarked) [化合物II-58, 4-(2-(3-(1-(3',4'-二氟-[1,1'-联苯]-3-羰基)哌啶-3-基)苯氧基)-2-甲基丙酰基)哌嗪-1-氯化铵] the value was “亲和活性更优”; for `CC(C)(Oc1cccc(C2CCCN(C(=O)c3cccc(-c4ccc(F)c(F)c4)c3)C2)c1)C(=O)N1CCC(N)CC1.Cl` (centres unmarked) [化合物II-59, 1-(2-(3-(1-(3',4'-二氟-[1,1'-联苯]-3-羰基)哌啶-3-基)苯氧基)-2-甲基丙酰基)哌嗪-4-氯化铵], “亲和活性更优”; for `CC(C)(Oc1cccc(C2CCCN(C(=O)c3cccc(-c4ccc(F)c(F)c4)c3)C2)c1)C(=O)N1CCOCC1` (centres unmarked) [化合物II-60, 2-(3-(1-(3',4'-二氟-[1,1'-联苯]-3-羰基)哌啶-3-基)苯氧基)-2-甲基-1-吗啉丙-1-酮], “亲和活性更优”.
With `CC(C)(Oc1cccc(C2CCCN(C(=O)c3cccc(-c4ccc(F)c(F)c4)c3)C2)c1)C(=O)NC1CCNCC1.Cl` (centres unmarked) [化合物II-61, 4-(2-(3-(1-(3',4'-二氟-[1,1'-联苯]-3-羰基)哌啶-3-基)苯氧基)-2-甲基丙酰胺)哌啶-1-氯化铵], the “affinity activity compared with reference compound c” value is given as “亲和活性更优”.
As to `CC(C)(Oc1cccc(C2CCCN(C(=O)c3cccc(-c4ccc(F)c(F)c4)c3)C2)c1)C(=O)N1CCC(O)CC1` (centres unmarked) [化合物II-63, 2-(3-(1-(3',4'-二氟-[1,1'-联苯]-3-羰基)哌啶-3-基)苯氧基)-1-(4-羟基哌啶-1-基)-2-甲基丙-1-酮], the “affinity activity compared with reference compound c” value is listed as “亲和活性更优”.
The same measure, in the same setting: as for `CC(C)(Oc1cccc(C2CCCN(C(=O)c3cccc(-c4ccc(F)c(F)c4)c3)C2)c1)C(=O)N1C[C@H]2C[C@@H]1CN2.Cl` (stereo partly drawn) [化合物II-65, (1R,4R)-5-(2-(3-(3-(3',4'-二氟-[1,1'-联苯]-3-羰基)哌啶-3-基)苯氧基)-2-甲基丙酰基)-2,5-二氮杂二环[2.2.1]庚-2-氯化铵], the entry is “亲和活性更优”; as for `CC(C)(Oc1cccc(C2CCCN(C(=O)c3cccc(-c4ccc(F)c(F)c4)c3)C2)c1)C(=O)N1C[C@@H]2C[C@H]1CN2.Cl` (stereo partly drawn) [化合物II-66, (1S,4S)-5-(2-(3-(1-(3',4'-二氟-[1,1'-联苯]-3-羰基)哌啶-3-基)苯氧基)-2-甲基丙酰基)-2,5-二氮杂二环[2.2.1]庚烷-2-氯化铵], “亲和活性更优”.
For `COc1ccc(S(=O)(=O)NC(=O)C(C)(C)Oc2cccc(C3CCCN(C(=O)c4cccc(-c5ccc(F)c(F)c5)c4)C3)c2)cc1` (centres unmarked) [化合物II-68, 2-(3-(1-(3',4'-二氟-[1,1'-联苯]-3-羰基)哌啶-3-基)苯氧基)-N-((4-甲氧基苯基)磺酰基)-2-甲基丙酰胺], the “affinity activity compared with reference compound c” value is “亲和活性更优”.

For the next assay, the target named is T2, hERG potassium channel [hERG钾离子通道] (Homo sapiens, UniProt Q12809).
T2 construct: expressed in transfected cells; host or cells: HEK293 (stably transfected)
T2 sequence (Q12809 whole entry): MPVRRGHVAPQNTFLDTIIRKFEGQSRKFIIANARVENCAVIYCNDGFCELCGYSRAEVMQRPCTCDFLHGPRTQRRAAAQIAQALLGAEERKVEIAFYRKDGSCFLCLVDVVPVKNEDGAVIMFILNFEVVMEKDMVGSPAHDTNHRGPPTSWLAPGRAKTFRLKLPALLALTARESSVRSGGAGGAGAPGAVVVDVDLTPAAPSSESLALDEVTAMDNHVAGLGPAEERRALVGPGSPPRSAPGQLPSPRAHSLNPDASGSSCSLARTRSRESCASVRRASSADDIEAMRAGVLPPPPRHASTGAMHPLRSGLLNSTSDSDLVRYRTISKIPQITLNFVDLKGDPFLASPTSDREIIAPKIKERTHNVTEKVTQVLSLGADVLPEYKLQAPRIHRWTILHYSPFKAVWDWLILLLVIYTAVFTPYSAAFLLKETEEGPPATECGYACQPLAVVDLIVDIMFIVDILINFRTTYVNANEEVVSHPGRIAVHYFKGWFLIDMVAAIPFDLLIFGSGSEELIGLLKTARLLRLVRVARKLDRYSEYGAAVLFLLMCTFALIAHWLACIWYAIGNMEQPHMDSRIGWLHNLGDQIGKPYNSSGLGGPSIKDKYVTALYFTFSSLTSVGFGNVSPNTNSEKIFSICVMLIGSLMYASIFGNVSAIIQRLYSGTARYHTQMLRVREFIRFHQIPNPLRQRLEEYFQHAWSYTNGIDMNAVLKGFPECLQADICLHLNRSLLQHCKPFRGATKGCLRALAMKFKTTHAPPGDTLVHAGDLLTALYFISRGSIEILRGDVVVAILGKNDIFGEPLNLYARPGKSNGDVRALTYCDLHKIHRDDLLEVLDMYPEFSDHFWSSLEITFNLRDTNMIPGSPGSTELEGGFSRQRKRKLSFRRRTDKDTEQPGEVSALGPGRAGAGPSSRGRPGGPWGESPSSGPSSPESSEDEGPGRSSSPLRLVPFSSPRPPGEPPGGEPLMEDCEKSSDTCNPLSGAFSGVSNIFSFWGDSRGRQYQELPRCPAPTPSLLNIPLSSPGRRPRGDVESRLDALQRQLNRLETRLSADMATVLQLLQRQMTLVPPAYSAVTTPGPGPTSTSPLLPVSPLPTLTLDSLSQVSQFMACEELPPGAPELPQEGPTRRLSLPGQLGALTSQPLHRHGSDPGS
In words: hERG potassium channel, whole-cell patch clamp (Example 73). The class given is cell-based. As to conditions: whole-cell patch clamp, HEK293 cells stably transfected, room temperature; read-out: hERG IC50. (In general: hERG is a cardiac potassium channel; its block is linked to QT prolongation.)
As to `CC(C)(Oc1cccc(C2CCCN(C(=O)c3cccc(-c4ccc(F)c(F)c4)c3)C2)c1)C(=O)O` (centres unmarked) [化合物II-2, 2-(3-(1-(3',4'-二氟-[1,1'-联苯基]-3-羰基)哌啶-3-基)苯氧基)-2-甲基丙酸], the IC50 (commonly the concentration at which inhibition is half-maximal) is > 10 µM.
As for `CC(C)(Oc1cccc(C2CCCN(S(=O)(=O)c3cccc(-c4ccsc4)c3)C2)c1)C(=O)O` (centres unmarked) [化合物II-14, 2-甲基-2-(3-(1-((3-(噻吩-3-基)苯基)磺酰基)哌啶-3-基)苯氧基)丙酸], the IC50 was > 10 µM.

These data come from CN116444420A, “β-catenin/BCL9蛋白蛋白相互作用的小分子抑制剂及其应用” (Shanghai Pharmaceutical Industry Research Institute Co ltd, priority 2021, dated 2023).
